Experiment [1] has as its target T1, 5-HT2 receptors in the rat frontal cortex (Rattus norvegicus, UniProt P14842).
T1 construct: Fresh frontal cortex tissue from rat brain is homogenized; from tissue; host or cells: rat frontal cortex membranes
The experiment can be described thus: inhibition of specific 3H-spiperone binding to 5-HT2 receptors in rat frontal cortex. As to conditions: rat frontal cortex membranes, 1 nM 3H-spiperone, 1 h at 37° C., pH 7.7. The procedure: This test has been carried out as follows:
Fresh frontal cortex tissue from rat brain is homogenized in a 20 fold volume of Tris-HCl buffer (50 mM, pH 7.7, containing 4 mM CaCl2, 10 μM pargyline, and 0.1% ascorbic acid), and centrifuged. The pellets are resuspended in a 25 fold volume of the same buffer, incubated for 15 min at 37° C., and recentrifuged. The pellets are frozen at -20° C. and resuspended in a 360 fold volume of the same buffer as above before use for the binding experiment. The composition of the assay mixtures (total volume =2 ml) is as follows: 50 mM Tris-HCl pH 7,7, 4 mM CaCl2, 10 μM pargyline, 0.1% ascorbic acid, membranes corresponding to 5 mg of original tissue weight, and 1 nM ^3 H-spiperone. The assays for the determination of nonspecific binding additionally contain cinanserin in a concentration of 1 μM. […] After incubation for 1 hour at 37° C., the assay mixtures are rapidly filtered through Whatman GF/B filters and washed twice with 5 ml of ice cold incubation buffer.

The next experiment has as its system locomotion in mice. Briefly: inhibition of locomotion in mice (neuroleptic activity). Format: in vivo, mice (male, OF-1). As to conditions: Mus musculus, po, read-out: EDmin (inhibition of locomotion). The procedure: In this test groups of 3 male mice (18-24 g, OF-1, Sandoz Basle) received 3.2, 10, 32, 100 and 320 mg p.o. of the test drug.
The next experiment deals with paradoxical sleep (PS). Briefly: reduction of paradoxical sleep (PS) in the 48 h sleep EEG in rats. It counts as in vivo. The note with it: 3.2-32 mg/kg p.o. The source says: Kleinlogel "EEG in Drug Research" ed. by Hermann, Gustav Fischer Verlag, Stuttgart, N.Y., 75-88 (1982)].
For experiment [2], the target named is T2, 3H-spiperone binding sites in the brain (calf brain striatal tissue) (Bos taurus, UniProt P20288).
T2 construct: fresh calf brain striatal tissue was homogenized; from tissue; host or cells: calf brain striatal membranes
Briefly: inhibition of specific 3H-spiperone binding in calf brain striatal tissue. As to conditions: calf brain striatal membranes, 0.1 nM 3H-spiperone, 5×10^-7 M cinanserin, 40 minutes at room temperature.

Results on seven compounds are retold here after patent US4673674A, “Diazepinoindoles useful for treating depression, schizophrenia, social withdrawal or anxiety and pharmaceutical compositions containing them” (Sandoz Pharmaceuticals Corp., priority 1984, dated 1987).

Each structure is given as a SMILES string. Read-outs that look alike come from different tables or passages of the source.

T1 sequence (P14842 whole entry): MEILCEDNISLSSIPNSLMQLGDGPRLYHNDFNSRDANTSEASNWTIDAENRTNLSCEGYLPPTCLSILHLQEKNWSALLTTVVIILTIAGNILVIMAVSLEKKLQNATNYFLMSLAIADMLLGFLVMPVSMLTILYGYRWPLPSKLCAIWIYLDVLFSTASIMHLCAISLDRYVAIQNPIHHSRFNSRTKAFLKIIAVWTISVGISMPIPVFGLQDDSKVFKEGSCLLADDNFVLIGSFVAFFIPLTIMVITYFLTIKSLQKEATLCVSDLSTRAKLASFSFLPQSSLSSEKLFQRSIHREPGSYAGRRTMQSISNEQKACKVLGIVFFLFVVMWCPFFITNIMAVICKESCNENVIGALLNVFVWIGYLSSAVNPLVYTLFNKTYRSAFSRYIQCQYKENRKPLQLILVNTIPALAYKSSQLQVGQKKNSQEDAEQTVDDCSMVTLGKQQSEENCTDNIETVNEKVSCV
T2 sequence (P20288 whole entry): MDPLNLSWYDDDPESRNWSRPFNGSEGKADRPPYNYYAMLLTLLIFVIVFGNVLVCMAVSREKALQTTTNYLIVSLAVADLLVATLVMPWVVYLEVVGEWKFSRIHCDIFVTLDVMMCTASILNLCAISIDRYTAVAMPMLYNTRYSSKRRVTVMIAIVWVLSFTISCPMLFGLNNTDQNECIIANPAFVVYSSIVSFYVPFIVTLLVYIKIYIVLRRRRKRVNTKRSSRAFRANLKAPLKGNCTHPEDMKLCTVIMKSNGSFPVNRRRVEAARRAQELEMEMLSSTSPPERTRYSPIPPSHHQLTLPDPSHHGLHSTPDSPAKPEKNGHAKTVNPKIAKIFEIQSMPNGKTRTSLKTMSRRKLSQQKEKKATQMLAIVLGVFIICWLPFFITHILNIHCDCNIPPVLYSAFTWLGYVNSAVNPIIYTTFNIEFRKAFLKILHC

`c1ccc(-c2c3n(c4ccccc24)CCNCC3)cc1` [Example 2, 2,3,4,5,-Tetrahydro-11-phenyl-1H-[1,4]diazepino[1,7-a]indole]: the IC50 (commonly the point on the concentration scale where inhibition reaches its midpoint) in experiment [1] was 0.001 to 0.01 µM.
In the case of `CSc1ccc2c(c1)N(CCC1CCCCN1C)c1ccccc1S2` (stereo not drawn) [thioridazine, reference compound], the minimal effective dose in the experiment with locomotion in mice (1 h) was in the range of 10 to 32 mg/kg.
In turn, `C=CCN1CCc2c(-c3ccccc3)c3ccccc3n2CC1` [Example 3, 3-Allyl-2,3,4,5-tetrahydro-11-phenyl-1H-[1,4]diazepino-[1,7-a]indole] came in with an IC50 in experiment [1] of 0.001 to 0.01 µM.
Regarding `c1ccc(-c2c3n(c4ccccc24)CCN(CC2CC2)CC3)cc1` [Example 4, 3-Cyclopropylmethyl-2,3,4,5-tetrahydro-11-phenyl-1H-[1,4]diazepino[1,7-a]indole], the IC50 in experiment [1] was in the range of 0.001 to 0.01 µM.
As to `CN(C)CCC=C1c2ccccc2CCc2ccccc21` [amitriptyline, reference compound], the “reduction of paradoxical sleep (PS)” value in the experiment on paradoxical sleep (PS) is recorded as “reduce further the paradoxical sleep (PS) without rebound”. In experiment [1], this compound came in with an IC50 of 0.015 µM.
In experiment [1], `CN1CCc2c(-c3ccccc3)c3ccccc3n2CC1` [Example 1, 2,3,4,5-Tetrahydro-3-methyl-11-phenyl-1H-[1,4]diazepino[1,7-a]indole] showed an IC50 of 0.001 to 0.01 µM.
`CN1CCc2c(-c3ccc(Cl)cc3)c3ccccc3n2CC1` [Example 5j] registered an IC50 in experiment [2] of 0.137 µM. Moreover, the minimal effective dose in the experiment with locomotion in mice (male mice, 1 hour after administration) turned out to be 3.2 mg/kg.
